# According to patent publication US12624044B2, “SMARCA degraders and uses thereof” (Kymera Therapeutics, Inc., priority 2019, dated 2026):
# Key:
# Type in all cases: cell-based
# SMARCA4 = target: T1, SMARCA4 (Homo sapiens, UniProt P51532); test: SMARCA4 Western blot MV4-11 degradation; settings: 24 h; for DC50: MV4-11 cells, read-out: SMARCA4 WB MV411 degradation 24 h: Average external-Abs DC50; for Dmax: MV4-11, MV4-11 cells, read-out: SMARCA4 WB MV411 degradation 24 h: Average Dmax %
# T1 construct: SMARCA2 and SMARCA4 protein degradation in MV4-11 cells; endogenous in cells; host or cells: MV4-11
# In short: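 MV4-11 cells treated with compound for 24 h, lysed in RIPA with protease/phosphatase inhibitors, and SMARCA2 and SMARCA4 (BRG1) levels assessed by Western blot with β-actin loading control and LI-COR fluorescent read-out. Maximal degradation (Dmax %) after 24 h binned into letter codes.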
# SMARCA2 [1] = target: T2, SMARCA2 (Homo sapiens, UniProt P51531); test: SMARCA2 Western blot MV4-11 degradation; settings: 24 h; for DC50: MV4-11 cells, read-out: SMARCA2 WB MV411 degradation 24 h: Average external-Abs DC50; for Dmax: MV4-11, MV4-11 cells, read-out: SMARCA2 WB MV411 degradation 24 h: Average Dmax %
# Procedure: Cells were seeded into 6-well plates (MV4-11: 4×10^6 cells/well/1 ml) and 1 ml of 2× compound solution was added into the well to make the final concentration and the plates were mixed well and incubated for 24 hours (No cytotoxicity was observed). The cell were collected with media and spun at 3000 rpm for 5 minutes. The supernatant was aspirated and the well and the cells were washed with cold PBS once and combined for centrifugation again; the supernatant aspirated again. 200 ul pre-chilled RIPAlysis buffer (Boston BioProducts BP-115D) with protease/phosphatase inhibitor (Roche 05892791001/Roche 04906837001) was directly added into the tube to lyze the cells for 20 minutes on ice. The cell lysate were collected into EP tubes and spun at 13000 rpm for 20 minutes and 72 ul supernatant was transferred to a fresh EP tube containing 18 ul of 5× loading buffer (Beyotime Bio P0015) to make the loading samples. The samples were heated to 100° C. for 10 minutes and cooled to RT and microcentrifuged. 20 ul of samples were loaded onto SDS-PAGE gel (Novex, WG1402BOX) and the gel was run at 80 V for 20 minutes and 120 V for 1.5 hours. The samples were electrotransfer to a NC membrane using wet-transfer method with 250 mA for 2.5 hours. The membrane was blocked with LICOR blocking buffer (LI-COR, 927-50000) for 1 hour. The membrane was washed three times with TBST (CST #9997S), 5 minutes each. Incubation was performed with primary antibody prepared in blocking buffer with 0.1% Tween-20 (Solarbio, P8220) at 4° C. overnight (Anti-SMARCA2/BRM antibody (ab15597) 1:500; Anti-BRG1 antibody [EPR3912] (ab108318) 1:1000; Rabbit anti-Baf180 antibody [EPR15860] (Abcam, ab196022) 1:1000; mouse anti-beta-Actin (8H10D10) (CST #3700) 1:10000). The membrane was washed three times with TBST, 5 minutes each. Incubation with secondary antibody was performed for 1 hour at RT (anti-rabbit IgG (Licor, 926-32211) 1:5000; anti-mouse IgG (LI-COR, 926-68070) 1:5000). The membrane was washed three times with TBST, 5 minutes each and lastly the LiCOR was read.
# The letter codes for the percentage of SMARCA degradation after 24 hours (Dmax %) include: A (>90% degradation), B (>70-90% degradation), C (50-70% degradation), and D (<50% degradation).
# SMARCA2 [2] = target: T2, SMARCA2; test: MSD SMARCA2 degradation in A549 cell line; settings: 24 h; for DC50: A549 cells, read-out: SMARCA2 MSD A549 degradation 24 h: Average external-Abs DC50; for Dmax: A549, A549 cells
# In short: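 A549 cells treated 24 h with compound at final 0.152-1000 nM (3-fold series, DMSO control). Lysates analyzed by MSD immunoassay using anti-SMARCA2/BRM detection and SULFO-TAG secondary antibodies; maximal degradation (Dmax %) reported as letter bins.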
# T1 sequence (P51532 whole entry): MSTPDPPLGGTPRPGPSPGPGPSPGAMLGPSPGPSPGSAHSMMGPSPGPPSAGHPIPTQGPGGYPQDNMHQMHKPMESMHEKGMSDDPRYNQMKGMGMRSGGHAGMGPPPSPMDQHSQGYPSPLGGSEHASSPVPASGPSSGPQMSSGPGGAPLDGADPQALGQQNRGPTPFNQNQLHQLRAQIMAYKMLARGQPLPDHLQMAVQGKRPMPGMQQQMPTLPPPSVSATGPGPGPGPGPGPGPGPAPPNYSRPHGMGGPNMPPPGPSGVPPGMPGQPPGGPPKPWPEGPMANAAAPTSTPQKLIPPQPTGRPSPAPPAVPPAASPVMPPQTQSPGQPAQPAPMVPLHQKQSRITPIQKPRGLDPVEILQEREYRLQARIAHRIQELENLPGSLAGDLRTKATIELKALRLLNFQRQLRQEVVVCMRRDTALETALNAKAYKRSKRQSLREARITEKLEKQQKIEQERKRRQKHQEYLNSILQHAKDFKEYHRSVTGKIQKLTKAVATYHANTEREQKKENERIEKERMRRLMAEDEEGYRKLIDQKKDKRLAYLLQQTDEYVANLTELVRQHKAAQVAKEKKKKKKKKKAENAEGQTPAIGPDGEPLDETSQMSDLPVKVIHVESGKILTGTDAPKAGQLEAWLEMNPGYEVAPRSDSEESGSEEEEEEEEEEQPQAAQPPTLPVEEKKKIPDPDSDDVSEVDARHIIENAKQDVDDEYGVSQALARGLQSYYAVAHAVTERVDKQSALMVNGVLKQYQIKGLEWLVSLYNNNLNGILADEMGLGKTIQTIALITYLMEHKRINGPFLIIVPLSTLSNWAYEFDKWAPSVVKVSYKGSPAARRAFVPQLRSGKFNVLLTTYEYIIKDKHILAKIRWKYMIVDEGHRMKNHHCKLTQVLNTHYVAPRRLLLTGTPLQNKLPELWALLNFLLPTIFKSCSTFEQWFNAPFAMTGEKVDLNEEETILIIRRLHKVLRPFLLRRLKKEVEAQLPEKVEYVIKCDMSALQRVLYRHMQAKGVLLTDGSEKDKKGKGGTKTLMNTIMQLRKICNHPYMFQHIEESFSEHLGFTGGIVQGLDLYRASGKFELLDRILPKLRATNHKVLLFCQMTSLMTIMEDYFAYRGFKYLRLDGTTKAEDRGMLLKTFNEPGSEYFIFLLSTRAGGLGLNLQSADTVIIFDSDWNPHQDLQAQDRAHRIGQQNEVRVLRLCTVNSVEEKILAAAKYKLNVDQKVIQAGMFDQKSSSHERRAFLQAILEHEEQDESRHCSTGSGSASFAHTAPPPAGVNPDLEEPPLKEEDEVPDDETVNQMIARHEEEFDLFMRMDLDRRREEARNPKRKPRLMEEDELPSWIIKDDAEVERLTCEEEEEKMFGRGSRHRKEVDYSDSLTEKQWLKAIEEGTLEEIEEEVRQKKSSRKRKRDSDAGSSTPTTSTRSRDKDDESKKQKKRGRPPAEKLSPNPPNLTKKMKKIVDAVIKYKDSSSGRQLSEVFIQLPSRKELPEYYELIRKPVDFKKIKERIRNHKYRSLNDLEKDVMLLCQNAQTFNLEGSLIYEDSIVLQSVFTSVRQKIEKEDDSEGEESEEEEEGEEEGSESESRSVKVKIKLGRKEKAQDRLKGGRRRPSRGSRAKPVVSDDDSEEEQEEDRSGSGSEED
# T2 sequence (P51531 whole entry): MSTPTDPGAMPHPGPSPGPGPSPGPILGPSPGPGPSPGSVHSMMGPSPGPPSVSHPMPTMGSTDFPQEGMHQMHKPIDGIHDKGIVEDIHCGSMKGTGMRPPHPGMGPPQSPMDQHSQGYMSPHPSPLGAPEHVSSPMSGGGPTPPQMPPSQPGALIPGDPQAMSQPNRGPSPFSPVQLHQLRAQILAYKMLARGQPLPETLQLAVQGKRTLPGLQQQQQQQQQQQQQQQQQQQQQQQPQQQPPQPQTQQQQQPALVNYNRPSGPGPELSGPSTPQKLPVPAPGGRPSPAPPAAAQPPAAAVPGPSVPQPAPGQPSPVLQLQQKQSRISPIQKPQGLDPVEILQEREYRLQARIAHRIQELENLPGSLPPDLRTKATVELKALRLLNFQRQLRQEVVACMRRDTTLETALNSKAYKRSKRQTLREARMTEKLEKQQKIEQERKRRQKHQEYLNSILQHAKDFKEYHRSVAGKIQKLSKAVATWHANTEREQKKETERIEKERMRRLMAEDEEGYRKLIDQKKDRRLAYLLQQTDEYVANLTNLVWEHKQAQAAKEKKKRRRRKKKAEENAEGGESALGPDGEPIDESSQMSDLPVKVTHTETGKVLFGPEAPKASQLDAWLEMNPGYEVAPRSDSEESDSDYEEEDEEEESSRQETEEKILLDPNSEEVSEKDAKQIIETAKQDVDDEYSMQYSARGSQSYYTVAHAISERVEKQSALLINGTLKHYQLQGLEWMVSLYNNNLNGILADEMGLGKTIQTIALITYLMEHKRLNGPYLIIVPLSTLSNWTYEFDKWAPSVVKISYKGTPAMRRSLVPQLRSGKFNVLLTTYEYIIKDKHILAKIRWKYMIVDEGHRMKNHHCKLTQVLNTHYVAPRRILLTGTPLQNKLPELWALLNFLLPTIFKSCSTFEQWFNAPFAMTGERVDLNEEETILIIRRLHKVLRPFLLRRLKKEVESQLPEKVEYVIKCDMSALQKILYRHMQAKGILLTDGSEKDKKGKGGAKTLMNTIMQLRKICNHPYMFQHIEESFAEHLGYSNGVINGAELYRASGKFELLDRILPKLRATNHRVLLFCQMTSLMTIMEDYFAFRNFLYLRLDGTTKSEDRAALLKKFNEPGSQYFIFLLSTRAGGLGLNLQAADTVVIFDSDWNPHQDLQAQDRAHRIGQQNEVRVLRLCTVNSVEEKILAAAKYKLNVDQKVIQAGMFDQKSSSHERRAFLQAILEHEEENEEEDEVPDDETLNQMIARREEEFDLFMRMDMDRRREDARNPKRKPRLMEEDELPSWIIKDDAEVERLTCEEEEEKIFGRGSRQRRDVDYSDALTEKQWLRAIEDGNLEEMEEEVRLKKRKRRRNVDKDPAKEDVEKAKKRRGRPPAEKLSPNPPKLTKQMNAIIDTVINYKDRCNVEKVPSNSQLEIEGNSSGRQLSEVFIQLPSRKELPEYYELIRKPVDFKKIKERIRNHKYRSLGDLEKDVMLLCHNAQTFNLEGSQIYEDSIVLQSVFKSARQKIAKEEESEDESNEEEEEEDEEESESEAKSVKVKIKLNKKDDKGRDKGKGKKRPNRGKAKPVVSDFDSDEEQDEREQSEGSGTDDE
SMILES,DC50 (SMARCA4) [nM],DC50 (SMARCA2 [1]) [nM],DC50 (SMARCA2 [2]) [nM],Dmax (SMARCA4) [%],Dmax (SMARCA2 [1]) [%],Dmax (SMARCA2 [2]) [%]
Cc1ncsc1-c1ccc(CNC(=O)[C@@H]2C[C@@H](O)CN2C(=O)[C@@H](NC(=O)[C@H]2C[C@@]3(C2)C[C@H](c2cnc(N4C5CCC4CN(c4cc(-c6ccccc6O)nnc4N)C5)nc2)C3)C(C)(C)C)cc1 (stereo partly drawn) [I-369],< 100,< 100,< 100,–,–,–
Cc1ncsc1-c1ccc(CNC(=O)[C@@H]2C[C@@H](O)CN2C(=O)[C@@H](NC(=O)[C@H]2CC[C@H](CN3CCC(c4cnc(N5C6CCC5CN(c5cc(-c7ccccc7O)nnc5N)C6)nc4)CC3)CC2)C(C)(C)C)cc1 [I-375],501 to 1000,< 100,100 to 500,50 to 70,> 90,> 90
Cc1ncsc1-c1ccc(CNC(=O)[C@@H]2C[C@@H](O)CN2C(=O)[C@@H](NC(=O)[C@H]2CC[C@H](CCCCCN3CCC(Cn4cc(-c5cc(-c6ccccc6O)nnc5N)cn4)CC3)CC2)C(C)(C)C)cc1 [I-378],< 100,< 100,100 to 500,> 90,> 90,> 90
Cc1ncsc1-c1ccc(CNC(=O)[C@@H]2C[C@@H](O)CN2C(=O)[C@@H](NC(=O)[C@H]2CC[C@H](CCN3CCC(n4cc(-c5cc(-c6ccccc6O)nnc5N)cn4)CC3)CC2)C(C)(C)C)cc1 [I-399],100 to 500,< 100,< 100,50 to 70,> 90,> 90
Cc1ncsc1-c1ccc(CNC(=O)[C@@H]2C[C@@H](O)CN2C(=O)[C@@H](NC(=O)[C@H]2CC[C@H](CCCN3CCC(n4cc(-c5cc(-c6ccccc6O)nnc5N)cn4)CC3)CC2)C(C)(C)C)cc1 [I-401],100 to 500,< 100,100 to 500,70 to 90,> 90,> 90
Cc1ncsc1-c1ccc(CNC(=O)[C@@H]2C[C@@H](O)CN2C(=O)[C@@H](NC(=O)[C@H]2CC[C@H](c3cnc(N4C5CCC4CN(c4cc(-c6ccccc6O)nnc4N)C5)nc3)CC2)C(C)(C)C)c(C(F)(F)F)c1 [I-404],100 to 500,< 100,100 to 500,70 to 90,> 90,> 90
Cc1ncsc1-c1ccc(CNC(=O)[C@@H]2C[C@@H](O)CN2C(=O)[C@@H](NC(=O)[C@H]2CC[C@H](c3cnc(N4C5CCC4CN(c4cc(-c6ccccc6O)nnc4N)C5)nc3)CC2)C(C)(C)C)c(OC(F)(F)F)c1 [I-405],100 to 500,< 100,< 100,> 90,> 90,> 90
Cc1ncsc1-c1ccc(CNC(=O)[C@@H]2C[C@@H](O)CN2C(=O)[C@@H](NC(=O)[C@@H]2CC=C(c3cnc(N4C5CCC4CN(c4cc(-c6ccccc6O)nnc4N)C5)nc3)CC2)C(C)(C)C)cc1 [I-406],< 100,< 100,< 100,70 to 90,> 90,> 90
Cc1ncsc1-c1ccc(CNC(=O)[C@@H]2C[C@@H](O)CN2C(=O)[C@@H](NC(=O)[C@H]2CC=C(c3cnc(N4C5CCC4CN(c4cc(-c6ccccc6O)nnc4N)C5)nc3)CC2)C(C)(C)C)cc1 [I-407],< 100,< 100,100 to 500,> 90,> 90,> 90
